Experiments:
[1] = test system: human dermal fibroblasts (BJ cell line); assay: Oxygen consumption rate (oxidative phosphorylation), XF Extracellular Flux Analyzer; format: cell-based
Description: This method enables the non-lethal, simultaneous detection of metabolic indicators associated with the oxidative phosphorylation and glycolysis metabolic pathways in a controlled environment. The method also enables the collection of kinetic data. When assessing the metabolic response to a stressor or test agent, it is important to assess both metabolic pathways simultaneously to understand how the two metabolic pathways interact with the stressor or test agent and/or to one another. Additionally, it is important to monitor the metabolic pathways in real time (i.e., repeating periodic measurements) to observe trends and/or transient responses that may be missed when using methods that provide only static data. Thus, destructive tests are not suitable for use herein since they typically only allow for a single measurement. With regard to the fibroblasts discussed above in FIGS. 5A, 5B, 5C, 5D, 5E, 6, 7A, 7B, 7C, 7D, 7E and 8, frozen human dermal fibroblasts were obtained from the BJ cell line commercially available from ATCC, Bethesda, Md. […] Oxygen consumption rate and extracellular acidification rate may be detected using an XF Extracellular Flux Analyzer or equivalent. […]

[2] = test system: human dermal fibroblasts (BJ cell line); assay: Extracellular acidification rate (glycolysis), XF Extracellular Flux Analyzer; format: cell-based
Description: This method enables the non-lethal, simultaneous detection of metabolic indicators associated with the oxidative phosphorylation and glycolysis metabolic pathways in a controlled environment. The method also enables the collection of kinetic data. When assessing the metabolic response to a stressor or test agent, it is important to assess both metabolic pathways simultaneously to understand how the two metabolic pathways interact with the stressor or test agent and/or to one another. Additionally, it is important to monitor the metabolic pathways in real time (i.e., repeating periodic measurements) to observe trends and/or transient responses that may be missed when using methods that provide only static data. Thus, destructive tests are not suitable for use herein since they typically only allow for a single measurement. With regard to the fibroblasts discussed above in FIGS. 5A, 5B, 5C, 5D, 5E, 6, 7A, 7B, 7C, 7D, 7E and 8, frozen human dermal fibroblasts were obtained from the BJ cell line commercially available from ATCC, Bethesda, Md. The fibroblasts were grown to 70-80% confluence in a culture medium of Eagle's Minimum Essential Medium (“EMEM”) supplemented with 10% fetal bovine serum (“FBS”) and gentamicin/amphotericin B ×500 solution (EMEM and FBS are available from ATCC, and gentamicin/amphotericin B ×500 solution is available from Invitrogen). The fibroblasts were plated at 1×10^5 cells per well in Gelatin-coated plates 24 hours prior to testing. Each well included 100 μL of the fibroblast medium described above. A test medium was made from Dulbecco's Modified Eagle Medium (available from Seahorse Bioscience), 25 mM glucose and 1 mM pyruvate. The test medium was warmed to 37° C. and the pH adjusted to 7.4. The cells were grown and plated at 37° C. and 5% CO2 air. The fibroblast medium in the wells was replaced by the test medium 1 hour prior to taking measurements. Oxygen consumption rate and extracellular acidification rate may be detected using an XF Extracellular Flux Analyzer or equivalent. […]

Compound: NC(=O)c1cccnc1 [niacinamide]
- effect on oxphos metabolism ([1]; 1.0 mM niacinamide by itself): no significant affect on the oxphos metabolism
- effect on OCR in presence of hydrogen peroxide ([1]; niacinamide 1.0 mM in combination with […] hydrogen peroxide): lessen the initial decrease in OCR somewhat
- effect on hydrogen peroxide-induced decrease in glycolysis metabolism ([2]; plate 1, 0.1 mM and […] niacinamide in combination with […] hydrogen peroxide): lessen the detrimental effect of the hydrogen peroxide on glycolysis metabolism
- effect on hydrogen peroxide-induced decrease in extracellular acidification rate ([2]; plate 2, 0.5 mM and 1.0 mM niacinamide in combination with […] hydrogen peroxide): prevent the acidification rate from decreasing below the basal value
- effect on fibroblast glycolysis ([2]; plate 2, 1.0 mM niacinamide by itself): substantially no effect on fibroblast glycolysis

— patent publication US20150276714A1, “METHOD OF IDENTIFYING OR EVALUATING BENEFICIAL ACTIVES AND COMPOSITIONS CONTAINING THE SAME” (The Procter & Gamble Company, priority 2012, published 2015)
